Our source for the IC50 values is patent US20250092016A1, “COMPOUNDS AND COMPOSITIONS FOR THE TREATMENT OF CORONAVIRAL RELATED DISEASES” (priority 2021, published 2025).

A word on the IC50: it is the concentration that gives 50% inhibition.

The target of this assay is SARS-CoV-2 main protease (M^pro) (Severe acute respiratory syndrome coronavirus 2, UniProt P0DTD1). As to the kind of experiment: Rapid-Fire MS Biochemical Assay measuring Mpro activity (5 nM Mpro). To be noted: Table 1B, Mpro inhibition, 5 μM substrate peptide, 120 min, read-out: Rapid-Fire Assay IC50.
As to `N#C[C@H]1CN([C@@H]2CCN(C(=O)CO)C2)C(=O)N1c1cncc2ccccc12` (single isomer, unassigned) [Compound 25a], the IC50 was 200 to 1000 nM.
The figure for `N#C[C@@H]1CN([C@@H]2CCN(C(=O)CO)C2)C(=O)N1c1cncc2ccccc12` (single isomer, unassigned) [Compound 25b] is more than 1000 nM; for `N#C[C@H]1CN([C@@H]2CCN(CCC(F)(F)F)C2)C(=O)N1c1cncc2ccccc12` (single isomer, unassigned) [Compound 26a] it is 200 to 1000 nM.
For `N#C[C@@H]1CN([C@@H]2CCN(CCC(F)(F)F)C2)C(=O)N1c1cncc2ccccc12` (single isomer, unassigned) [Compound 26b] the value was more than 1000 nM.
For `N#C[C@H]1CN(c2cc(C(F)(F)F)cnn2)C(=O)N1c1cncc2ccccc12` (single isomer, unassigned) [Compound 30a], the IC50 is less than 20 nM.
Turning to `N#C[C@@H]1CN(c2cc(C(F)(F)F)cnn2)C(=O)N1c1cncc2ccccc12` (single isomer, unassigned) [Compound 30b], the IC50 was more than 1000 nM.
The figure for `COc1cnc(C(F)(F)F)nc1N1C[C@H](C#N)N(c2cncc3ccccc23)C1=O` (single isomer, unassigned) [Compound 31a] is 20 to 200 nM; for `COc1cnc(C(F)(F)F)nc1N1C[C@@H](C#N)N(c2cncc3ccccc23)C1=O` (single isomer, unassigned) [Compound 31b] it is more than 1000 nM; for `N#C[C@H]1CN(c2cnc(C(F)(F)F)cn2)C(=O)N1c1cncc2ccccc12` (single isomer, unassigned) [Compound 32a] it is less than 20 nM.
The figure for `N#C[C@@H]1CN(c2cnc(C(F)(F)F)cn2)C(=O)N1c1cncc2ccccc12` (single isomer, unassigned) [Compound 32b] is more than 1000 nM; for `N#C[C@H]1CN(c2cccc(Cl)c2)C(=O)N1c1cncc2ccc(C(=O)O)cc12` (single isomer, unassigned) [Compound 33a] it is less than 20 nM; for `N#C[C@@H]1CN(c2cccc(Cl)c2)C(=O)N1c1cncc2ccc(C(=O)O)cc12` (single isomer, unassigned) [Compound 33b] it is more than 1000 nM.
The figure for `CS(=O)(=O)c1ccc2cncc(N3C(=O)N(c4cccc(Cl)c4)C[C@@H]3C#N)c2c1` (single isomer, unassigned) [Compound 37a] is less than 20 nM.
As for `CS(=O)(=O)c1ccc2cncc(N3C(=O)N(c4cccc(Cl)c4)C[C@H]3C#N)c2c1` (single isomer, unassigned) [Compound 37b], the IC50 was more than 1000 nM.
For `COc1ccc(C(F)(F)F)cc1N1C[C@H](C#N)N(c2cncc3ccc(S(C)(=O)=O)cc23)C1=O` (single isomer, unassigned) [Compound 38a] the value was less than 20 nM; for `COc1ccc(C(F)(F)F)cc1N1C[C@@H](C#N)N(c2cncc3ccc(S(C)(=O)=O)cc23)C1=O` (single isomer, unassigned) [Compound 38b], more than 1000 nM; for `N#Cc1ccc2cncc(N3C(=O)N(c4cccc(Cl)c4)C[C@@H]3C#N)c2c1` (single isomer, unassigned) [Compound 39a], less than 20 nM.
For `N#Cc1ccc2cncc(N3C(=O)N(c4cccc(Cl)c4)C[C@H]3C#N)c2c1` (single isomer, unassigned) [Compound 39b] the value was more than 1000 nM.
The figure for `C[C@]1(C#N)CN(c2cccc(Cl)c2)C(=O)N1c1cncc2ccccc12` (single isomer, unassigned) [Compound 40a] is 200 to 1000 nM; for `C[C@@]1(C#N)CN(c2cccc(Cl)c2)C(=O)N1c1cncc2ccccc12` (single isomer, unassigned) [Compound 40b] it is more than 1000 nM.
With `N#C[C@H]1CN(c2ccc(Cl)cn2)C(=O)N1c1cncc2ccccc12` (single isomer, unassigned) [Compound 41a], the 50% inhibitory concentration (IC50) was less than 20 nM.
For `N#C[C@@H]1CN(c2ccc(Cl)cn2)C(=O)N1c1cncc2ccccc12` (single isomer, unassigned) [Compound 41b] the value was 200 to 1000 nM; for `N#C[C@H]1CN(c2ncc(C(F)(F)F)cn2)C(=O)N1c1cncc2ccccc12` (single isomer, unassigned) [Compound 42a], less than 20 nM; for `N#C[C@@H]1CN(c2ncc(C(F)(F)F)cn2)C(=O)N1c1cncc2ccccc12` (single isomer, unassigned) [Compound 42b], more than 1000 nM.
The figure for `C[C@H]1[C@H](C#N)N(c2cncc3ccccc23)C(=O)N1c1cccc(Cl)c1` (single isomer, unassigned) [Compound 43a] is less than 20 nM; for `C[C@H]1[C@@H](C#N)N(c2cncc3ccccc23)C(=O)N1c1cccc(Cl)c1` (single isomer, unassigned) [Compound 43b] it is 200 to 1000 nM.
The figure for `Cc1cc(N2C[C@H](C#N)N(c3cncc4ccccc34)C2=O)ccn1` (single isomer, unassigned) [Compound 44a] is 20 to 200 nM; for `Cc1cc(N2C[C@@H](C#N)N(c3cncc4ccccc34)C2=O)ccn1` (single isomer, unassigned) [Compound 44b] it is more than 1000 nM; for `N#C[C@H]1CN([C@@H]2CCN(CCO)C2)C(=O)N1c1cncc2ccccc12` (single isomer, unassigned) [Compound 46a] it is more than 1000 nM.
Consider `N#C[C@@H]1CN([C@@H]2CCN(CCO)C2)C(=O)N1c1cncc2ccccc12` (single isomer, unassigned) [Compound 46b], for which the IC50 was more than 1000 nM.
The figure for `COc1ccc(C(F)(F)F)nc1N1C[C@H](C#N)N(c2cncc3ccccc23)C1=O` (single isomer, unassigned) [Compound 47a] is 20 to 200 nM.
For `COc1ccc(C(F)(F)F)nc1N1C[C@@H](C#N)N(c2cncc3ccccc23)C1=O` (single isomer, unassigned) [Compound 47b] the value was more than 1000 nM; for `CS(=O)(=O)c1cccc(N2C[C@H](C#N)N(c3cncc4ccccc34)C2=O)c1` (single isomer, unassigned) [Compound 48a], less than 20 nM.
For `CS(=O)(=O)c1cccc(N2C[C@@H](C#N)N(c3cncc4ccccc34)C2=O)c1` (single isomer, unassigned) [Compound 48b] the value was more than 1000 nM; for `N#C[C@H]1CN(c2nccc(C(F)(F)F)n2)C(=O)N1c1cncc2ccccc12` (single isomer, unassigned) [Compound 49a], 20 to 200 nM; for `N#C[C@@H]1CN(c2nccc(C(F)(F)F)n2)C(=O)N1c1cncc2ccccc12` (single isomer, unassigned) [Compound 49b], more than 1000 nM.
For the compound `N#Cc1ccc(N2C[C@H](C#N)N(c3cncc4ccccc34)C2=O)cc1` (single isomer, unassigned) [Compound 50a], the IC50 was less than 20 nM.
The figure for `N#Cc1ccc(N2C[C@@H](C#N)N(c3cncc4ccccc34)C2=O)cc1` (single isomer, unassigned) [Compound 50b] is more than 1000 nM.
With `N#C[C@H]1CN(c2cccc(C(F)(F)F)n2)C(=O)N1c1cncc2ccccc12` (single isomer, unassigned) [Compound 51a], the IC50 is 20 to 200 nM.
For `N#C[C@@H]1CN(c2cccc(C(F)(F)F)n2)C(=O)N1c1cncc2ccccc12` (single isomer, unassigned) [Compound 51b] the value was more than 1000 nM.
